For assay [1], the target named is T1, Low molecular weight protein-tyrosine phosphatase A (Mycobacterium tuberculosis, UniProt P9WIA1).
T1 sequence (P9WIA1 whole entry): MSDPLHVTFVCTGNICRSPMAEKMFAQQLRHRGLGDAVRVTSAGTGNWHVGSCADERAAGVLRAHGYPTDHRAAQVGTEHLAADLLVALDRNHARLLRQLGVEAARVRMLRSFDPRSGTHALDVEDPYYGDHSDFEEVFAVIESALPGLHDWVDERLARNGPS
Kind of assay: Inhibition of Mycobacterium tuberculosis PtpA using p-nitrophenyl phosphate as substrate preincubated for 10 mins followed by substrate addition measured every minute for 10 mins by UV-VIS spectrophotometric analysis.

The target in assay [2] is T2, Tyrosine-protein phosphatase non-receptor type 1 (Homo sapiens, UniProt P18031).
T2 sequence (P18031 whole entry): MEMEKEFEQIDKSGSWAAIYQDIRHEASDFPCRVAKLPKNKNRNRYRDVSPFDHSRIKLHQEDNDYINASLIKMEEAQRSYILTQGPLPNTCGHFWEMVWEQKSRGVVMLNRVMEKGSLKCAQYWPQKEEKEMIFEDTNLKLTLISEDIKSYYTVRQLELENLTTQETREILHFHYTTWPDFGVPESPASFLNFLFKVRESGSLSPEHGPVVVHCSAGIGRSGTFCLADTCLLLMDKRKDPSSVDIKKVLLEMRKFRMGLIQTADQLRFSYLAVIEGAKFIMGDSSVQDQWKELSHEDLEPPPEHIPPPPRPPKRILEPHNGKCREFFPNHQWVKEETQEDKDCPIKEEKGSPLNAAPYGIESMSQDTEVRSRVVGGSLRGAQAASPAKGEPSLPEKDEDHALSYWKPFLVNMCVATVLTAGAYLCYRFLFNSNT
Kind of assay: Inhibition of human PTP1B using p-nitrophenyl phosphate as substrate preincubated for 10 mins followed by substrate addition measured every minute for 10 mins by UV-VIS spectrophotometric analysis.

In assay [3] the target is T3, Tyrosine-protein phosphatase non-receptor type 22 (Homo sapiens, UniProt Q9Y2R2).
T3 sequence (Q9Y2R2 whole entry): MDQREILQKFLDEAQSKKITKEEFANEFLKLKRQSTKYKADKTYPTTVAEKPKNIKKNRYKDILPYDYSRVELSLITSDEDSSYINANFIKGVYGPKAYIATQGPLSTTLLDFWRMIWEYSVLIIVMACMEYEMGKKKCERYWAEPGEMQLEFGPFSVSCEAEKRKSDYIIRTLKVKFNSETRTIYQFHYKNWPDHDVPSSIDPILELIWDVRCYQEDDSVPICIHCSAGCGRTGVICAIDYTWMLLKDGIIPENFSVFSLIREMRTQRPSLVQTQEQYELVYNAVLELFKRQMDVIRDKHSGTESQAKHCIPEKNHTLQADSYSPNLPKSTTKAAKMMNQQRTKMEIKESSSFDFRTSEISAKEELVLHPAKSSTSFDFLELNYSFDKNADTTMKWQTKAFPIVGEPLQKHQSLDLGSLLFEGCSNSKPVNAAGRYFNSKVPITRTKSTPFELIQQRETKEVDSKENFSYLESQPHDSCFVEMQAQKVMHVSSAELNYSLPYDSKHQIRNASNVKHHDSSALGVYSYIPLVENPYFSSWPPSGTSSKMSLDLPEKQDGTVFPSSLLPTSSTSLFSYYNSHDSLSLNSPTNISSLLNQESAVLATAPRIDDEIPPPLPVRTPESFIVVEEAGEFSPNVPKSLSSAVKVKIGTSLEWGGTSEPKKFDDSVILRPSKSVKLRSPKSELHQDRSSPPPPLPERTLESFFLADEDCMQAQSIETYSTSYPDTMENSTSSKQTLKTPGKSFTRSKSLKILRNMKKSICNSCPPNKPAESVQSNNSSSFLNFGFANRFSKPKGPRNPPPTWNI
Kind of assay: Inhibition of LYP (unknown origin) using p-nitrophenyl phosphate as substrate preincubated for 10 mins followed by substrate addition measured every minute for 10 mins by UV-VIS spectrophotometric analysis.

The target of assay [4] is T4, Tyrosine-protein phosphatase non-receptor type 12 (Homo sapiens, UniProt Q05209).
T4 sequence (Q05209 whole entry): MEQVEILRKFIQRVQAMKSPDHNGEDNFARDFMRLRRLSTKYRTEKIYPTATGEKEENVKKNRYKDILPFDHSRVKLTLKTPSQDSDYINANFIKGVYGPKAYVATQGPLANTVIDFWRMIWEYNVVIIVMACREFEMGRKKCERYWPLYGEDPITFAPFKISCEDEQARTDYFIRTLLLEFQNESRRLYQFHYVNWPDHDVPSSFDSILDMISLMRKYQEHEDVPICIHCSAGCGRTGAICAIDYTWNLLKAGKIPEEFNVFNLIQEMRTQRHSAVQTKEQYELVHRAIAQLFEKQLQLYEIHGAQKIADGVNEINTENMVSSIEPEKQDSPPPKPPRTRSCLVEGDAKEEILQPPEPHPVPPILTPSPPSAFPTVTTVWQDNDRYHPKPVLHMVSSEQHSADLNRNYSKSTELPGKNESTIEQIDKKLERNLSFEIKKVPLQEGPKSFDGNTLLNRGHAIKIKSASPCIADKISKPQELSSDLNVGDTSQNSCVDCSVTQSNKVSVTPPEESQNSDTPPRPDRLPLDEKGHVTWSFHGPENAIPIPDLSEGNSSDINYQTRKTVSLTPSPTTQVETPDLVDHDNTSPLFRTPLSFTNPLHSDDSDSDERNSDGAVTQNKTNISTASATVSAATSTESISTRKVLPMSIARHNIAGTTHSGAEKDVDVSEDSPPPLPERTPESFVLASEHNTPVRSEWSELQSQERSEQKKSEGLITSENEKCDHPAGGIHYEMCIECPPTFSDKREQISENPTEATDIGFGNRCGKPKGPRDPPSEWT
Description: Inhibition of PTP-PEST (unknown origin) using p-nitrophenyl phosphate as substrate preincubated for 10 mins followed by substrate addition measured every minute for 10 mins by UV-VIS spectrophotometric analysis.

Assay [5] deals with T5, Phosphotyrosine protein phosphatase (Mycobacterium tuberculosis) (UniProt A0A045ISB3).
T5 sequence (whole entry): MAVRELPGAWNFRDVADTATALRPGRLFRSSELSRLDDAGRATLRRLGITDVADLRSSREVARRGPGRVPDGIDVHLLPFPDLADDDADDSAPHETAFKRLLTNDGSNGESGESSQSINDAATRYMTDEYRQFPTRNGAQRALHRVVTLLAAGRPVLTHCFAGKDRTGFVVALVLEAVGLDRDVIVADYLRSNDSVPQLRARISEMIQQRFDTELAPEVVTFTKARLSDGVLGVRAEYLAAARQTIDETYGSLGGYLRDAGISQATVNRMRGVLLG
Description: Reversible inhibition of Mycobacterium tuberculosis PtpB using p-nitrophenyl phosphate as substrate assessed as enzyme recovery at 10 times IC50 preincubated for 10 mins followed by 100-fold dilution. Details: scale not given: the % may be the effect or the level left.

Assay [6] deals with T5, Phosphotyrosine protein phosphatase (Mycobacterium tuberculosis). Kind of assay: Binding affinity to Mycobacterium tuberculosis PtpB assessed as binding constant by fluorescence based assay.
Assay [7] addresses T6, Phosphotyrosine protein phosphatase (Mycobacterium tuberculosis, UniProt A0A045ISB3).
T6 sequence (A0A045ISB3 whole entry): T5 sequence (whole entry)
Kind of assay: Binding affinity to Mycobacterium tuberculosis PtpB by fluorescence based assay.

Assay [8] concerns the target T5, Phosphotyrosine protein phosphatase (Mycobacterium tuberculosis). Description: Binding affinity to Mycobacterium tuberculosis PtpB assessed as sequence coverage level at 100 uM preincubated for 10 mins before trypsin addition by mass spectrometry based peptide mass fingerprint assay (reference value: 92%).

Each structure is given as a SMILES string.

For `CC(C)=CCc1c(O)ccc(C(=O)[C@@H]2[C@@H](c3ccc(O)cc3O)CC(C)=C[C@H]2c2c(O)cc(O)c3c(=O)c(CC=C(C)C)c(-c4ccc(O)cc4O)oc23)c1O`, the IC50 (usually the point on the concentration scale where inhibition reaches its midpoint) in assay [1] was 1.49 µM; in assay [2] it was 2.54 µM; in assay [3], 11.8 µM; in assay [4], 5.22 µM. In addition, the Activity in assay [5] was determined as 40%; in assay [8], 93%. For the same molecule, the Ka in assay [6] is 1.2 ×10⁶ /M. Besides, the Kd (commonly the free concentration of one partner at which half of the binding sites on the other are occupied at equilibrium, for simple one-to-one binding) in assay [7] is 0.85 µM.
`CC(C)=CCc1c(-c2ccc(O)cc2O)oc2c([C@@H]3C=C(C)C[C@H](c4ccc(O)cc4O)[C@H]3C(=O)c3ccc(O)cc3O)c(O)cc(O)c2c1=O`: the IC50 in assay [1] came out at 5.89 µM; in assay [2], 4.56 µM; in assay [3], 18.5 µM; in assay [4] it was 12.4 µM. Also, the Activity stood at 40% in assay [5] and 90% in assay [8]. The Ka in assay [6] is 1.4 ×10⁶ /M. Besides, the Kd in assay [7] stood at 0.7 µM.

The values are drawn from ChEMBL document CHEMBL4251612, “Naturally occurring Diels-Alder-type adducts from Morus nigra as potent inhibitors of Mycobacterium tuberculosis protein tyrosine phosphatase B” (Eur J Med Chem, 2018).
